Experimental data from ChEMBL document CHEMBL5303573, “Mapping human microbiome drug metabolism by gut bacteria and their genes” (Nature, 2019).

Assay: The drug is tested on Bacteroides vulgatus strain: ATCC8482 for biotransformation. The drug concentrations were measured before and after a 12-h incubation by liquid-chromatography-coupled mass spectrometry (LC–MS)
Settings: phocaeicola vulgatus, 2 µM

Structure (SMILES) | Bacterial Biotransformation
N#Cc1ccc2c(c1)N(CCCN1CCC(O)CC1)c1ccccc1S2 [PERICIAZINE] | Compound metabolized
N#Cc1ccc2[nH]cc(CCCCN3CCN(c4ccc5oc(C(N)=O)cc5c4)CC3)c2c1 [VILAZODONE] | Compound metabolized
CCCCCCOC(=O)/N=C(/N)c1ccc(NCc2nc3cc(C(=O)N(CCC(=O)OCC)c4ccccn4)ccc3n2C)cc1.CS(=O)(=O)O [DABIGATRAN ETEXILATE MESYLATE] | Compound NOT metabolized

Assay: The drug is tested on Bacteroides uniformis strain: ATCC8492 for biotransformation. The drug concentrations were measured before and after a 12-h incubation by liquid-chromatography-coupled mass spectrometry (LC–MS)
Settings: 2 µM

Structure (SMILES) | Bacterial Biotransformation
CN1CC(=O)N2[C@H](c3ccc4c(c3)OCO4)c3[nH]c4ccccc4c3C[C@@H]2C1=O | Compound NOT metabolized
N#Cc1ccc2c(c1)N(CCCN1CCC(O)CC1)c1ccccc1S2 [PERICIAZINE] | Compound NOT metabolized
N#Cc1ccc2[nH]cc(CCCCN3CCN(c4ccc5oc(C(N)=O)cc5c4)CC3)c2c1 [VILAZODONE] | Compound metabolized
CCCCCCOC(=O)/N=C(/N)c1ccc(NCc2nc3cc(C(=O)N(CCC(=O)OCC)c4ccccn4)ccc3n2C)cc1.CS(=O)(=O)O [DABIGATRAN ETEXILATE MESYLATE] | Compound NOT metabolized

Assay: The drug is tested on Dorea formicigenerans strain: ATCC27755 for biotransformation. The drug concentrations were measured before and after a 12-h incubation by liquid-chromatography-coupled mass spectrometry (LC–MS)
Settings: 2 µM

Structure (SMILES) | Bacterial Biotransformation
CN1CC(=O)N2[C@H](c3ccc4c(c3)OCO4)c3[nH]c4ccccc4c3C[C@@H]2C1=O | Compound NOT metabolized
N#Cc1ccc2c(c1)N(CCCN1CCC(O)CC1)c1ccccc1S2 [PERICIAZINE] | Compound NOT metabolized
N#Cc1ccc2[nH]cc(CCCCN3CCN(c4ccc5oc(C(N)=O)cc5c4)CC3)c2c1 [VILAZODONE] | Compound NOT metabolized
CCCCCCOC(=O)/N=C(/N)c1ccc(NCc2nc3cc(C(=O)N(CCC(=O)OCC)c4ccccn4)ccc3n2C)cc1.CS(=O)(=O)O [DABIGATRAN ETEXILATE MESYLATE] | Compound NOT metabolized

Assay: The drug is tested on Alistipes indistinctus strain: DSM22520 for biotransformation. The drug concentrations were measured before and after a 12-h incubation by liquid-chromatography-coupled mass spectrometry (LC–MS)
Settings: 2 µM

Structure (SMILES) | Bacterial Biotransformation
CN1CC(=O)N2[C@H](c3ccc4c(c3)OCO4)c3[nH]c4ccccc4c3C[C@@H]2C1=O | Compound NOT metabolized
N#Cc1ccc2c(c1)N(CCCN1CCC(O)CC1)c1ccccc1S2 [PERICIAZINE] | Compound metabolized
N#Cc1ccc2[nH]cc(CCCCN3CCN(c4ccc5oc(C(N)=O)cc5c4)CC3)c2c1 [VILAZODONE] | Compound metabolized
CCCCCCOC(=O)/N=C(/N)c1ccc(NCc2nc3cc(C(=O)N(CCC(=O)OCC)c4ccccn4)ccc3n2C)cc1.CS(=O)(=O)O [DABIGATRAN ETEXILATE MESYLATE] | Compound NOT metabolized

Assay: The drug is tested on Clostridium sporogenes strain: ATCC15579 for biotransformation. The drug concentrations were measured before and after a 12-h incubation by liquid-chromatography-coupled mass spectrometry (LC–MS)
Settings: 2 µM

Structure (SMILES) | Bacterial Biotransformation
N#Cc1ccc2c(c1)N(CCCN1CCC(O)CC1)c1ccccc1S2 [PERICIAZINE] | Compound NOT metabolized
N#Cc1ccc2[nH]cc(CCCCN3CCN(c4ccc5oc(C(N)=O)cc5c4)CC3)c2c1 [VILAZODONE] | Compound metabolized
CCCCCCOC(=O)/N=C(/N)c1ccc(NCc2nc3cc(C(=O)N(CCC(=O)OCC)c4ccccn4)ccc3n2C)cc1.CS(=O)(=O)O [DABIGATRAN ETEXILATE MESYLATE] | Compound NOT metabolized

Assay: The drug is tested on Coprococcus comes strain: ATCC27758 for biotransformation. The drug concentrations were measured before and after a 12-h incubation by liquid-chromatography-coupled mass spectrometry (LC–MS)
Assay type: ADME
Design: dose 2 uM, timepoint 0 vs 12 hours
Settings: 2 µM

Structure (SMILES) | Bacterial Biotransformation
CN1CC(=O)N2[C@H](c3ccc4c(c3)OCO4)c3[nH]c4ccccc4c3C[C@@H]2C1=O | Compound NOT metabolized
N#Cc1ccc2c(c1)N(CCCN1CCC(O)CC1)c1ccccc1S2 [PERICIAZINE] | Compound NOT metabolized
N#Cc1ccc2[nH]cc(CCCCN3CCN(c4ccc5oc(C(N)=O)cc5c4)CC3)c2c1 [VILAZODONE] | Compound NOT metabolized
CCCCCCOC(=O)/N=C(/N)c1ccc(NCc2nc3cc(C(=O)N(CCC(=O)OCC)c4ccccn4)ccc3n2C)cc1.CS(=O)(=O)O [DABIGATRAN ETEXILATE MESYLATE] | Compound NOT metabolized

Settings: anaerostipes sp., 12 h, 2 µM
Description: The drug is tested on Anaerostipes sp. strain: fecal isolate for biotransformation. The drug concentrations were measured before and after a 12-h incubation by liquid-chromatography-coupled mass spectrometry (LC–MS)

Structure (SMILES) | Bacterial Biotransformation
CN1CC(=O)N2[C@H](c3ccc4c(c3)OCO4)c3[nH]c4ccccc4c3C[C@@H]2C1=O | Compound NOT metabolized
N#Cc1ccc2c(c1)N(CCCN1CCC(O)CC1)c1ccccc1S2 [PERICIAZINE] | Compound NOT metabolized
N#Cc1ccc2[nH]cc(CCCCN3CCN(c4ccc5oc(C(N)=O)cc5c4)CC3)c2c1 [VILAZODONE] | Compound NOT metabolized
CCCCCCOC(=O)/N=C(/N)c1ccc(NCc2nc3cc(C(=O)N(CCC(=O)OCC)c4ccccn4)ccc3n2C)cc1.CS(=O)(=O)O [DABIGATRAN ETEXILATE MESYLATE] | Compound NOT metabolized

Settings: segatella copri, 12 h, 2 µM
Description: The drug is tested on Prevotella copri strain: DSM18205 for biotransformation. The drug concentrations were measured before and after a 12-h incubation by liquid-chromatography-coupled mass spectrometry (LC–MS)

Structure (SMILES) | Bacterial Biotransformation
N#Cc1ccc2c(c1)N(CCCN1CCC(O)CC1)c1ccccc1S2 [PERICIAZINE] | Compound NOT metabolized
N#Cc1ccc2[nH]cc(CCCCN3CCN(c4ccc5oc(C(N)=O)cc5c4)CC3)c2c1 [VILAZODONE] | Compound metabolized
CCCCCCOC(=O)/N=C(/N)c1ccc(NCc2nc3cc(C(=O)N(CCC(=O)OCC)c4ccccn4)ccc3n2C)cc1.CS(=O)(=O)O [DABIGATRAN ETEXILATE MESYLATE] | Compound NOT metabolized

Settings: roseburia intestinalis, 12 h, 2 µM
Description: The drug is tested on Roseburia intestinalis strain: L1-82 for biotransformation. The drug concentrations were measured before and after a 12-h incubation by liquid-chromatography-coupled mass spectrometry (LC–MS)

Structure (SMILES) | Bacterial Biotransformation
CN1CC(=O)N2[C@H](c3ccc4c(c3)OCO4)c3[nH]c4ccccc4c3C[C@@H]2C1=O | Compound NOT metabolized
N#Cc1ccc2[nH]cc(CCCCN3CCN(c4ccc5oc(C(N)=O)cc5c4)CC3)c2c1 [VILAZODONE] | Compound NOT metabolized
CCCCCCOC(=O)/N=C(/N)c1ccc(NCc2nc3cc(C(=O)N(CCC(=O)OCC)c4ccccn4)ccc3n2C)cc1.CS(=O)(=O)O [DABIGATRAN ETEXILATE MESYLATE] | Compound NOT metabolized

Assay: The drug is tested on Bacteroides xylanisolvens strain: DSM18836 for biotransformation. The drug concentrations were measured before and after a 12-h incubation by liquid-chromatography-coupled mass spectrometry (LC–MS)
Settings: 2 µM

Structure (SMILES) | Bacterial Biotransformation
N#Cc1ccc2[nH]cc(CCCCN3CCN(c4ccc5oc(C(N)=O)cc5c4)CC3)c2c1 [VILAZODONE] | Compound metabolized

Assay: The drug is tested on Bifidobacterium ruminantium strain: fecal isolate for biotransformation. The drug concentrations were measured before and after a 12-h incubation by liquid-chromatography-coupled mass spectrometry (LC–MS)
Settings: 2 µM

Structure (SMILES) | Bacterial Biotransformation
CN1CC(=O)N2[C@H](c3ccc4c(c3)OCO4)c3[nH]c4ccccc4c3C[C@@H]2C1=O | Compound NOT metabolized
CCCCCCOC(=O)/N=C(/N)c1ccc(NCc2nc3cc(C(=O)N(CCC(=O)OCC)c4ccccn4)ccc3n2C)cc1.CS(=O)(=O)O [DABIGATRAN ETEXILATE MESYLATE] | Compound NOT metabolized

Assay: The drug is tested on Odoribacter splanchnicus strain: fecal isolate for biotransformation. The drug concentrations were measured before and after a 12-h incubation by liquid-chromatography-coupled mass spectrometry (LC–MS)
Settings: 2 µM

Structure (SMILES) | Bacterial Biotransformation
N#Cc1ccc2[nH]cc(CCCCN3CCN(c4ccc5oc(C(N)=O)cc5c4)CC3)c2c1 [VILAZODONE] | Compound metabolized
CCCCCCOC(=O)/N=C(/N)c1ccc(NCc2nc3cc(C(=O)N(CCC(=O)OCC)c4ccccn4)ccc3n2C)cc1.CS(=O)(=O)O [DABIGATRAN ETEXILATE MESYLATE] | Compound NOT metabolized

Assay: The drug is tested on Ruminococcus torques strain: ATCC27756 for biotransformation. The drug concentrations were measured before and after a 12-h incubation by liquid-chromatography-coupled mass spectrometry (LC–MS)
Assay type: ADME
Design: dose 2 uM, timepoint 0 vs 12 hours
Settings: 2 µM

Structure (SMILES) | Bacterial Biotransformation
CN1CC(=O)N2[C@H](c3ccc4c(c3)OCO4)c3[nH]c4ccccc4c3C[C@@H]2C1=O | Compound NOT metabolized
N#Cc1ccc2c(c1)N(CCCN1CCC(O)CC1)c1ccccc1S2 [PERICIAZINE] | Compound NOT metabolized
N#Cc1ccc2[nH]cc(CCCCN3CCN(c4ccc5oc(C(N)=O)cc5c4)CC3)c2c1 [VILAZODONE] | Compound NOT metabolized

Assay: The drug is tested on Ruminococcus lactaris strain: ATCC29176 for biotransformation. The drug concentrations were measured before and after a 12-h incubation by liquid-chromatography-coupled mass spectrometry (LC–MS)
Settings: 2 µM

Structure (SMILES) | Bacterial Biotransformation
CN1CC(=O)N2[C@H](c3ccc4c(c3)OCO4)c3[nH]c4ccccc4c3C[C@@H]2C1=O | Compound NOT metabolized
N#Cc1ccc2[nH]cc(CCCCN3CCN(c4ccc5oc(C(N)=O)cc5c4)CC3)c2c1 [VILAZODONE] | Compound NOT metabolized
CCCCCCOC(=O)/N=C(/N)c1ccc(NCc2nc3cc(C(=O)N(CCC(=O)OCC)c4ccccn4)ccc3n2C)cc1.CS(=O)(=O)O [DABIGATRAN ETEXILATE MESYLATE] | Compound NOT metabolized

Assay: The drug is tested on Enterococcus faecalis strain: V583 for biotransformation. The drug concentrations were measured before and after a 12-h incubation by liquid-chromatography-coupled mass spectrometry (LC–MS)
Settings: 2 µM

Structure (SMILES) | Bacterial Biotransformation
CN1CC(=O)N2[C@H](c3ccc4c(c3)OCO4)c3[nH]c4ccccc4c3C[C@@H]2C1=O | Compound NOT metabolized
N#Cc1ccc2c(c1)N(CCCN1CCC(O)CC1)c1ccccc1S2 [PERICIAZINE] | Compound NOT metabolized
N#Cc1ccc2[nH]cc(CCCCN3CCN(c4ccc5oc(C(N)=O)cc5c4)CC3)c2c1 [VILAZODONE] | Compound metabolized
CCCCCCOC(=O)/N=C(/N)c1ccc(NCc2nc3cc(C(=O)N(CCC(=O)OCC)c4ccccn4)ccc3n2C)cc1.CS(=O)(=O)O [DABIGATRAN ETEXILATE MESYLATE] | Compound NOT metabolized

Assay: The drug is tested on Bacteroides fragilis strain: HMW615 for biotransformation. The drug concentrations were measured before and after a 12-h incubation by liquid-chromatography-coupled mass spectrometry (LC–MS)
Settings: 2 µM

Structure (SMILES) | Bacterial Biotransformation
CN1CC(=O)N2[C@H](c3ccc4c(c3)OCO4)c3[nH]c4ccccc4c3C[C@@H]2C1=O | Compound metabolized
N#Cc1ccc2c(c1)N(CCCN1CCC(O)CC1)c1ccccc1S2 [PERICIAZINE] | Compound NOT metabolized
N#Cc1ccc2[nH]cc(CCCCN3CCN(c4ccc5oc(C(N)=O)cc5c4)CC3)c2c1 [VILAZODONE] | Compound metabolized

Settings: akkermansia muciniphila, 12 h, 2 µM
Description: The drug is tested on Akkermansia muciniphila strain: ATCC BAA-835 for biotransformation. The drug concentrations were measured before and after a 12-h incubation by liquid-chromatography-coupled mass spectrometry (LC–MS)

Structure (SMILES) | Bacterial Biotransformation
CN1CC(=O)N2[C@H](c3ccc4c(c3)OCO4)c3[nH]c4ccccc4c3C[C@@H]2C1=O | Compound NOT metabolized
N#Cc1ccc2c(c1)N(CCCN1CCC(O)CC1)c1ccccc1S2 [PERICIAZINE] | Compound NOT metabolized
N#Cc1ccc2[nH]cc(CCCCN3CCN(c4ccc5oc(C(N)=O)cc5c4)CC3)c2c1 [VILAZODONE] | Compound NOT metabolized
CCCCCCOC(=O)/N=C(/N)c1ccc(NCc2nc3cc(C(=O)N(CCC(=O)OCC)c4ccccn4)ccc3n2C)cc1.CS(=O)(=O)O [DABIGATRAN ETEXILATE MESYLATE] | Compound NOT metabolized

Assay: The drug is tested on Providencia rettgeri strain: DSM1131 for biotransformation. The drug concentrations were measured before and after a 12-h incubation by liquid-chromatography-coupled mass spectrometry (LC–MS)
Assay type: ADME
Design: dose 2 uM, timepoint 0 vs 12 hours
Settings: 2 µM

Structure (SMILES) | Bacterial Biotransformation
CN1CC(=O)N2[C@H](c3ccc4c(c3)OCO4)c3[nH]c4ccccc4c3C[C@@H]2C1=O | Compound NOT metabolized
N#Cc1ccc2c(c1)N(CCCN1CCC(O)CC1)c1ccccc1S2 [PERICIAZINE] | Compound NOT metabolized
CCCCCCOC(=O)/N=C(/N)c1ccc(NCc2nc3cc(C(=O)N(CCC(=O)OCC)c4ccccn4)ccc3n2C)cc1.CS(=O)(=O)O [DABIGATRAN ETEXILATE MESYLATE] | Compound NOT metabolized

Assay: The drug is tested on Eubacterium ventriosum strain: ATCC27560 for biotransformation. The drug concentrations were measured before and after a 12-h incubation by liquid-chromatography-coupled mass spectrometry (LC–MS)
Assay type: ADME
Design: dose 2 uM, timepoint 0 vs 12 hours
Settings: 2 µM

Structure (SMILES) | Bacterial Biotransformation
CN1CC(=O)N2[C@H](c3ccc4c(c3)OCO4)c3[nH]c4ccccc4c3C[C@@H]2C1=O | Compound NOT metabolized
N#Cc1ccc2c(c1)N(CCCN1CCC(O)CC1)c1ccccc1S2 [PERICIAZINE] | Compound NOT metabolized
N#Cc1ccc2[nH]cc(CCCCN3CCN(c4ccc5oc(C(N)=O)cc5c4)CC3)c2c1 [VILAZODONE] | Compound NOT metabolized
CCCCCCOC(=O)/N=C(/N)c1ccc(NCc2nc3cc(C(=O)N(CCC(=O)OCC)c4ccccn4)ccc3n2C)cc1.CS(=O)(=O)O [DABIGATRAN ETEXILATE MESYLATE] | Compound NOT metabolized
